Results reported in patent US20030109920A1, “Engineered animal tissue” (The Regents of the University of California, priority 2001, published 2003).

What was measured:
Format in all cases: cell-based, human
[1] = test system: VE-cadherin; assay: IL-8 treatment of artificial tissue, phosphorylation of VE-Cadherin by immunoblot; conditions: artificial tissue treated with IL-8 at 50, 100, 300, 600, 1000 ng/ml for 30 minutes; immunoblot (FIG. 3)
Method: (§1) Cell cultures: Three dimensional artificial tissues were created as described above in Example 1 using primary normal human microvascular endothelial cells from adult lung (hMVEC; Clonetics), and primary adult normal human dermal fibroblasts (NHDF; Clonetics). The cultures were set up in either 24-well plates or Transwell units (Becton Dickinson) with polyethylene tetraphthalate filters containing 4 μm pores. Cultures were maintained at 37° C. and of 5% CO2 for at least 2 weeks. Medium was changed 24 hours after the cultures were started and then fed every 48 hours.
(§2) Immunoblotting: SDS-PAGE was performed using 10% separating Doucet gels (Doucet, J., and J. Trifaro. A discontinous and highly porous sodium dodecyl sulfatepolyacrylamide slab gel system of high resolution. Anal. Biochem. (1988) 168:265-271.). Protein transfer to nitrocellulose membranes was performed using a wet-transfer apparatus (BioRad) at 100V for 45 min at room temperature. The membranes were blocked for 1 hour in 5% BSA in TTBS (0.05% Tween in Tris buffered saline) and incubated overnight at 4° C. in primary antibody diluted in 1% BSA in TTBS. The membranes were washed 3 times for 20 min each with TTBS, incubated in anti-mouse or anti-rabbit HRP (1:10,000) in 1% BSA for 1 hr, and washed 3 times for 20 minutes each with TTBS. The antibody bound to the membrane was visualized using ECL chemiluminescent kit (Amersham). […]

[2] = test system: PECAM-1; assay: IL-8 treatment of artificial tissue, phosphorylation of PECAM-1 by immunoblot; conditions: artificial tissue treated with IL-8 at 50, 100, 300, 600, 1000 ng/ml for 30 minutes; immunoblot (FIG. 3)
Method: as §1, §2

[3] = test system: MMP-9; assay: Gelatin zymogram assay of MMP-9 in IL-8 treated artificial tissue; conditions: Cell/ECM extracts and culture medium (supernatants); samples collected 24 hours after IL-8 treatment (FIG. 4)
Method: as §1
Zymography: Zymography was performed using 10% denaturing polyacrylamide gels as previously described (Paech and Christiansen. (1994) In Cell biology: a laboratory handbook. (J. Celis, Ed.) V.3 pp.264-271 San Diego: Academic Press). Briefly, gels to test for gelatinolytic activity contained 1% gelatin (Sigma) and were cast 12 hours before the sample separation. Protein samples were separated at 4° C. with 10 mA constant current for each gel. The proteins were renatured using two washes of 15 minutes each in 2.5% Triton-X100 twice at RT. […]

## IL-8: human chemokine IL-8, used as test compound on the artificial tissue
[1]
  phosphorylation of VE-cadherin in microvessels: stimulates the phosphorylation
[2]
  phosphorylation of PECAM in microvessels: stimulates the phosphorylation
[3]
  MMP-9 activation: increases MMP-9 production and activation in a dose-dependent manner
  MMP-9 production: increases MMP-9 production and activation in a dose-dependent manner
